Key:
[1] = test system: LNCaP tumor-transplanted mouse; assay: Internal radioactivity distribution using LNCaP tumor-transplanted mouse; type: in vivo
Experimental: (§1) The animal test was performed in compliance with the guidelines of Kyoto University Animal Experiment Committee. Male CB17/IcrJcl-Prkdc^scid mice were purchased from CLEA Japan, Inc. The animals were kept under 12 h/12 h, day/night cycle conditions and fed ad libitum with food and water. LNCaP cells (1.0×10^7 cells/mouse) or PC-3 cells (1.0×10^7 cells/mouse) were suspended in a mixture of PBS and Matrigel manufactured by Corning Life Sciences (1:1, 150 μL) and the suspension was subcutaneously transplanted to the right shoulder of mice under isoflurane anesthesia. Thereafter, the mice were kept for 40 to 60 days.
LNCaP or PC-3 tumor-implanted mice were administered saline solutions (185 kBq, 100 μL) of [^111In]In-PSMA-DA1 or [^111In]In-PSMA-DB from the tail vein (n=3 each). Mice were euthanized 1, 4, 24, 48, 96, and 192 hours after administration. Thereafter, blood and each organ were recovered, and the mass and radioactivity of the organs were measured.
The percentage (% ID) of the radioactivity amount to the administered radioactivity amount (injected dose) is shown as the value (% ID/g) divided by the blood mass or the organ mass (g).
LNCaP tumor-implanted mice prepared by the same method as in Example 1-1 were administered a saline solution (241 kBq/100 μL) of [^111In]In-PtDA from the tail vein (n=3). Mice were euthanized 1, 24, and 48 hours after administration. Thereafter, blood and each organ were recovered, and the mass and radioactivity of the organs were measured.
LNCaP tumor-implanted mice prepared by the same method as in Example 1-1 were administered a saline solution (259 kBq/100 μL each) of each of the radiolabeled compounds in Examples 3-1 to 3-3 or Comparative Examples 2-1 to 2-2 from the tail vein (n=2 to 3). Mice were euthanized 1, 4, 24, 48, 96, and 192 hours after administration. Thereafter, blood and each organ were recovered, and the mass and radioactivity of the organs were measured.
as §1, with “LNCaP cells (4.3×10^6 cells/mouse) or” for “LNCaP cells (1.0×10^7 cells/mouse) or”, “PC-3 cells (3.3×10^6 cells/mouse) were” for “PC-3 cells (1.0×10^7 cells/mouse) were”, “shoulder of CB17/IcrJcl-Prkdc^scid mice under” for “shoulder of mice under”
Mice were euthanized 1, 4, 24, 48, 96, and 192 hours after administration. Thereafter, blood and each organ were recovered, and the mass and radioactivity of the organs were measured.
The results are shown in Table 12 (Mean value±standard deviation, n=3).

[2] = molecular target: human serum albumin (HSA) (Homo sapiens, UniProt P02768); assay: Evaluation of binding to albumin (HSA solution, PBS control); details: left to stand in HSA solution (45 mg/mL)
human serum albumin (HSA), sequence (P02768 25-609): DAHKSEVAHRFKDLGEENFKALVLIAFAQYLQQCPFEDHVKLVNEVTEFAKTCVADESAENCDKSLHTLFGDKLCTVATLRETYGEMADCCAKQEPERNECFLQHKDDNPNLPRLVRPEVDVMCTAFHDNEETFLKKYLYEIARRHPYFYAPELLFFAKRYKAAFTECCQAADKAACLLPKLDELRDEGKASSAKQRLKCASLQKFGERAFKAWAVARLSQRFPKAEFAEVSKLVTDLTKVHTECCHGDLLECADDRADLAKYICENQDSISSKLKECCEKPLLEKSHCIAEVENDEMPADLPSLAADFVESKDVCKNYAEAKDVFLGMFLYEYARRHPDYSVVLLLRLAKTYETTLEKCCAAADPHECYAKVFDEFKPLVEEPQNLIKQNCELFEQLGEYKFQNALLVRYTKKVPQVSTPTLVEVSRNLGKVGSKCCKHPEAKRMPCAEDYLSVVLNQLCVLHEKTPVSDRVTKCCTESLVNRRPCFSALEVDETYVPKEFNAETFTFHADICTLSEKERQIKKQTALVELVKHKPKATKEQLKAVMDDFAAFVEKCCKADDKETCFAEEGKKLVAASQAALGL
Experimental: Thereafter, the reaction liquids were added to a spin column (Sephadex G-100; manufactured by Cytiva), and centrifuged at 1500×g at 4° C. for 2 minutes. After separation, the radioactivity for each of the column and the eluate was measured with a gamma counter.
When a compound to be evaluated binds to albumin to form a composite, the compound passes through the column because of the increased molecular size.
As in Examples described above, PBS and human albumin were used to evaluate binding to albumin.
Thereafter, the reaction liquid was added to a spin column (Sephadex G-50; manufactured by Cytiva), and centrifuged at 1500×g at 4° C. for 2 minutes. After separation, the radioactivity of the column and the eluate was measured with a gamma counter.

Structure (SMILES): O=C([O-])CN(CCN(CCc1ccc(NC(=O)[C@H](CCCCNC(=O)CCC(=O)NCCCC[C@H](NC(=O)N[C@@H](CCC(=O)O)C(=O)O)C(=O)O)NC(=O)CCCc2ccc(I)cc2)cc1)CCN(CC(=O)[O-])Cc1cccc(C(=O)[O-])n1)Cc1cccc(C(=O)[O-])n1.[111In+3] [[^111In]In-Neunpa-2]
- Blood ([1]; 1 h after administration): 13.6 ± 0.68 % ID/g
- Brain ([1]; 1 h after administration): 0.18 ± 0.00 % ID/g
- Heart ([1]; 1 h after administration): 3.74 ± 0.04 % ID/g
- Intestine ([1]; 1 h after administration): 1.22 ± 0.30 % ID/g
- Kidney ([1]; 1 h after administration): 90.1 ± 5.81 % ID/g
- LNCaP Tumor ([1]; 1 h after administration): 7.44 ± 0.18 % ID/g
- Liver ([1]; 1 h after administration): 2.23 ± 0.34 % ID/g
- Lung ([1]; 1 h after administration): 8.99 ± 1.68 % ID/g
- Muscle ([1]; 1 h after administration): 1.09 ± 0.25 % ID/g
- Pancreas ([1]; 1 h after administration): 1.61 ± 0.42 % ID/g
- Spleen ([1]; 1 h after administration): 16.9 ± 2.52 % ID/g
- Stomach (% ID) ([1]; 1 h after administration): 0.23 ± 0.06 % ID
- Blood ([1]; 4 h after administration): 5.73 ± 0.26 % ID/g
- Brain ([1]; 4 h after administration): 0.12 ± 0.01 % ID/g
- Heart ([1]; 4 h after administration): 1.78 ± 0.15 % ID/g
- Intestine ([1]; 4 h after administration): 1.05 ± 0.29 % ID/g
- Kidney ([1]; 4 h after administration): 126 ± 17.6 % ID/g
- LNCaP Tumor ([1]; 4 h after administration): 8.57 ± 0.61 % ID/g
- Liver ([1]; 4 h after administration): 1.29 ± 0.02 % ID/g
- Lung ([1]; 4 h after administration): 4.14 ± 0.61 % ID/g
- Muscle ([1]; 4 h after administration): 0.61 ± 0.11 % ID/g
- Pancreas ([1]; 4 h after administration): 0.82 ± 0.05 % ID/g
- Spleen ([1]; 4 h after administration): 8.16 ± 3.89 % ID/g
- Stomach (% ID) ([1]; 4 h after administration): 0.29 ± 0.18 % ID
- Blood ([1]; 24 h after administration): 2.48 ± 0.07 % ID/g
- Brain ([1]; 24 h after administration): 0.08 ± 0.01 % ID/g
- Heart ([1]; 24 h after administration): 0.79 ± 0.08 % ID/g
- Intestine ([1]; 24 h after administration): 0.68 ± 0.11 % ID/g
- Kidney ([1]; 24 h after administration): 101 ± 18.7 % ID/g
- LNCaP Tumor ([1]; 24 h after administration): 8.61 ± 1.06 % ID/g
- Liver ([1]; 24 h after administration): 1.00 ± 0.15 % ID/g
- Lung ([1]; 24 h after administration): 2.26 ± 0.29 % ID/g
- Muscle ([1]; 24 h after administration): 0.27 ± 0.11 % ID/g
- Pancreas ([1]; 24 h after administration): 0.65 ± 0.05 % ID/g
- Spleen ([1]; 24 h after administration): 2.67 ± 0.59 % ID/g
- Stomach (% ID) ([1]; 24 h after administration): 0.13 ± 0.06 % ID
- Blood ([1]; 48 h after administration): 0.20 ± 0.02 % ID/g
- Brain ([1]; 48 h after administration): 0.03 ± 0.00 % ID/g
- Heart ([1]; 48 h after administration): 0.14 ± 0.03 % ID/g
- Intestine ([1]; 48 h after administration): 0.23 ± 0.05 % ID/g
- Kidney ([1]; 48 h after administration): 11.7 ± 3.83 % ID/g
- LNCaP Tumor ([1]; 48 h after administration): 4.92 ± 0.70 % ID/g
- Liver ([1]; 48 h after administration): 0.58 ± 0.23 % ID/g
- Lung ([1]; 48 h after administration): 0.40 ± 0.10 % ID/g
- Muscle ([1]; 48 h after administration): 0.05 ± 0.04 % ID/g
- Pancreas ([1]; 48 h after administration): 0.25 ± 0.09 % ID/g
- Spleen ([1]; 48 h after administration): 0.83 ± 0.20 % ID/g
- Stomach (% ID) ([1]; 48 h after administration): 0.06 ± 0.03 % ID
- Blood ([1]; 96 h after administration): 0.13 ± 0.12 % ID/g
- Brain ([1]; 96 h after administration): 0.03 ± 0.02 % ID/g
- Heart ([1]; 96 h after administration): 0.14 ± 0.11 % ID/g
- Intestine ([1]; 96 h after administration): 0.17 ± 0.10 % ID/g
- Kidney ([1]; 96 h after administration): 9.71 ± 10.8 % ID/g
- LNCaP Tumor ([1]; 96 h after administration): 3.35 ± 0.90 % ID/g
- Liver ([1]; 96 h after administration): 1.30 ± 1.30 % ID/g
- Lung ([1]; 96 h after administration): 0.36 ± 0.24 % ID/g
- Muscle ([1]; 96 h after administration): 0.03 ± 0.02 % ID/g
- Pancreas ([1]; 96 h after administration): 0.18 ± 0.12 % ID/g
- Spleen ([1]; 96 h after administration): 0.47 ± 0.23 % ID/g
- Stomach (% ID) ([1]; 96 h after administration): 0.03 ± 0.01 % ID
- Blood ([1]; 192 h after administration): 0.02 ± 0.02 % ID/g
- Brain ([1]; 192 h after administration): 0.02 ± 0.00 % ID/g
- Heart ([1]; 192 h after administration): 0.22 ± 0.10 % ID/g
- Intestine ([1]; 192 h after administration): 0.10 ± 0.05 % ID/g
- Kidney ([1]; 192 h after administration): 1.83 ± 0.67 % ID/g
- LNCaP Tumor ([1]; 192 h after administration): 5.16 ± 0.23 % ID/g
- Liver ([1]; 192 h after administration): 0.64 ± 0.24 % ID/g
- Lung ([1]; 192 h after administration): 0.29 ± 0.07 % ID/g
- Muscle ([1]; 192 h after administration): 0.08 ± 0.00 % ID/g
- Pancreas ([1]; 192 h after administration): 0.29 ± 0.11 % ID/g
- Spleen ([1]; 192 h after administration): 0.88 ± 0.34 % ID/g
- Stomach (% ID) ([1]; 192 h after administration): 0.02 ± 0.01 % ID
- radioactivity in the eluate (in words) [2]: significantly higher
